Source: ChEMBL document CHEMBL4507288 (2021)
pKi: −log10 of the molar value.

What was measured:
[1] = target: 5-hydroxytryptamine receptor 2C (Homo sapiens, UniProt P28335); assay: GPCRScan assay: inhibition of 5-HT2C; design: radioligand conc. used [nm] 1.0 – 2.5, parental cells HEK T
[2] = target: RAC-alpha serine/threonine-protein kinase (Homo sapiens) (UniProt P31749); conditions: Compound concentration 1000.0 nM
[3] = target: RAC-gamma serine/threonine-protein kinase (Homo sapiens) (UniProt Q9Y243); conditions: Compound concentration 1000.0 nM
Sequence of RAC-gamma serine/threonine-protein kinase (Homo sapiens) (Q9Y243 whole entry): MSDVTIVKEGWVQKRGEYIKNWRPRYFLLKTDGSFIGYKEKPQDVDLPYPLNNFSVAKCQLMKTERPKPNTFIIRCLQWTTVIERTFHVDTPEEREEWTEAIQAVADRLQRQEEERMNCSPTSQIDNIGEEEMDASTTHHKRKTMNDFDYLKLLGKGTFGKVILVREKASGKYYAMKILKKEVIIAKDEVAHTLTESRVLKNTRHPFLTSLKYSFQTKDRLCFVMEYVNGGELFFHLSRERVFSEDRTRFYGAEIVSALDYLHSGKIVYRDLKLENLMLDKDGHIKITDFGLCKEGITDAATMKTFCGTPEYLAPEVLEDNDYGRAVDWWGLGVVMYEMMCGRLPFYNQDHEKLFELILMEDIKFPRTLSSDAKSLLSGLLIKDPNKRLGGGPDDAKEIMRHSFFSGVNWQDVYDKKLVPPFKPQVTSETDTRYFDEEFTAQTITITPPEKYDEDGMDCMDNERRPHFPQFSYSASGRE

[4] = system: ALK tyrosine kinase receptor (Homo sapiens), Q9UM73 [L1196M]; conditions: Compound concentration 1000.0 nM
[5] = target: Calcium/calmodulin-dependent protein kinase type II subunit alpha (Homo sapiens) (UniProt Q9UQM7); conditions: Compound concentration 1000.0 nM
[6] = target: Cyclin-dependent kinase 13 (Homo sapiens) (UniProt Q14004); conditions: Compound concentration 1000.0 nM
[7] = target: Cyclin-dependent kinase 5 (Homo sapiens) (UniProt Q00535); conditions: Compound concentration 1000.0 nM
Sequence of Cyclin-dependent kinase 5 (Homo sapiens) (Q00535 whole entry, looked up): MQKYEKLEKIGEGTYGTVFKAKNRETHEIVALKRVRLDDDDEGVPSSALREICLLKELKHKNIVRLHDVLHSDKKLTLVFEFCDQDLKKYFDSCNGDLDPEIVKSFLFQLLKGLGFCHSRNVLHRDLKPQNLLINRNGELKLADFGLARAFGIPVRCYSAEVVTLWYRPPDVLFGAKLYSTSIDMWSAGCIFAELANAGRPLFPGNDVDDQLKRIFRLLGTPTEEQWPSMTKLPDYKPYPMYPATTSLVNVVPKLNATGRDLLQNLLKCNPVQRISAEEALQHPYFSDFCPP

[8] = target: Tyrosine-protein kinase CSK (Homo sapiens) (UniProt P41240); conditions: Compound concentration 1000.0 nM
[9] = target: Casein kinase I isoform epsilon (Homo sapiens) (UniProt P49674); conditions: Compound concentration 1000.0 nM
[10] = system: Epidermal growth factor receptor (Homo sapiens), P00533 [UNDEFINED MUTATION]; conditions: Compound concentration 1000.0 nM
[11] = system: Epidermal growth factor receptor (Homo sapiens), P00533 [T790M]; conditions: Compound concentration 1000.0 nM
[12] = target: Ephrin type-A receptor 2 (Homo sapiens) (UniProt P29317); conditions: Compound concentration 1000.0 nM
[13] = target: Ephrin type-A receptor 7 (Homo sapiens) (UniProt Q15375); conditions: Compound concentration 1000.0 nM
Sequence of Ephrin type-A receptor 7 (Homo sapiens) (Q15375 28-998 limits assumed): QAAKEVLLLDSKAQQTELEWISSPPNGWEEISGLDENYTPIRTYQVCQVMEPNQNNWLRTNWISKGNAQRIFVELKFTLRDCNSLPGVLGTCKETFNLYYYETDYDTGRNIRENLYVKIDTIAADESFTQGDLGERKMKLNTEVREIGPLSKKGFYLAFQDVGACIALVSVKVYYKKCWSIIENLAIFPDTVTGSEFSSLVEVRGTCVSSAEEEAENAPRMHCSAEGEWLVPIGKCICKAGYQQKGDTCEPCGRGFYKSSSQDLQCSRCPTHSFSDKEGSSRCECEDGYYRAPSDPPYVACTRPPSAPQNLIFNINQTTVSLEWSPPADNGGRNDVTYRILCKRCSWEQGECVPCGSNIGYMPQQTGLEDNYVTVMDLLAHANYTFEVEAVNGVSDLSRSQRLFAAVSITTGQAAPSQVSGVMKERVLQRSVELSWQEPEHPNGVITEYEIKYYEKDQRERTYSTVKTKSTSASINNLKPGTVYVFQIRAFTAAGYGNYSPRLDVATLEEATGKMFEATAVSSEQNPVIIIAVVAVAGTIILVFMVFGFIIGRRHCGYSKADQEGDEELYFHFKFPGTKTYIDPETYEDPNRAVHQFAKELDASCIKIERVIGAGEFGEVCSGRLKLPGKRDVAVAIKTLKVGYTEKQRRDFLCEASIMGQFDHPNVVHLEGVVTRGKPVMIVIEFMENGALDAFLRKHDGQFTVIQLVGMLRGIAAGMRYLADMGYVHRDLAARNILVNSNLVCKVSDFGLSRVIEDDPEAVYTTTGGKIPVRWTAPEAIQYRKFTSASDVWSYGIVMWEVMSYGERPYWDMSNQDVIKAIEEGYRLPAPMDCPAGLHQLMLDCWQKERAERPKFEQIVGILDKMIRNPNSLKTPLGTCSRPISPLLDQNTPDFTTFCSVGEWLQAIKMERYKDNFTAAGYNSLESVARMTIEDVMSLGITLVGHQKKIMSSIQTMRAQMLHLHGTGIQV

[14] = target: Receptor tyrosine-protein kinase erbB-2 (Homo sapiens) (UniProt P04626); conditions: Compound concentration 1000.0 nM
[15] = target: Vascular endothelial growth factor receptor 1 (Homo sapiens) (UniProt P17948); conditions: Compound concentration 1000.0 nM
[16] = target: Receptor-type tyrosine-protein kinase FLT3 (Homo sapiens) (UniProt P36888); conditions: Compound concentration 1000.0 nM
[17] = target: Homeodomain-interacting protein kinase 4 (Homo sapiens) (UniProt Q8NE63); conditions: Compound concentration 1000.0 nM
[18] = target: Serine/threonine-protein kinase LATS2 (Homo sapiens) (UniProt Q9NRM7); conditions: Compound concentration 1000.0 nM
[19] = target: LIM domain kinase 2 (Homo sapiens) (UniProt P53671); conditions: Compound concentration 1000.0 nM
[20] = target: Mitogen-activated protein kinase kinase kinase 4 (Homo sapiens) (UniProt Q9Y6R4); conditions: Compound concentration 1000.0 nM
[21] = system: Hepatocyte growth factor receptor (Homo sapiens), P08581 [Y1235D]; conditions: Compound concentration 1000.0 nM
[22] = target: Serine/threonine-protein kinase 4 (Homo sapiens) (UniProt Q13043); conditions: Compound concentration 1000.0 nM
[23] = target: Myosin light chain kinase, smooth muscle (Homo sapiens) (UniProt Q15746); conditions: Compound concentration 1000.0 nM
[24] = target: Myosin light chain kinase 2, skeletal/cardiac muscle (Homo sapiens) (UniProt Q9H1R3); conditions: Compound concentration 1000.0 nM
Sequence of Myosin light chain kinase 2, skeletal/cardiac muscle (Homo sapiens) (Q9H1R3 whole entry): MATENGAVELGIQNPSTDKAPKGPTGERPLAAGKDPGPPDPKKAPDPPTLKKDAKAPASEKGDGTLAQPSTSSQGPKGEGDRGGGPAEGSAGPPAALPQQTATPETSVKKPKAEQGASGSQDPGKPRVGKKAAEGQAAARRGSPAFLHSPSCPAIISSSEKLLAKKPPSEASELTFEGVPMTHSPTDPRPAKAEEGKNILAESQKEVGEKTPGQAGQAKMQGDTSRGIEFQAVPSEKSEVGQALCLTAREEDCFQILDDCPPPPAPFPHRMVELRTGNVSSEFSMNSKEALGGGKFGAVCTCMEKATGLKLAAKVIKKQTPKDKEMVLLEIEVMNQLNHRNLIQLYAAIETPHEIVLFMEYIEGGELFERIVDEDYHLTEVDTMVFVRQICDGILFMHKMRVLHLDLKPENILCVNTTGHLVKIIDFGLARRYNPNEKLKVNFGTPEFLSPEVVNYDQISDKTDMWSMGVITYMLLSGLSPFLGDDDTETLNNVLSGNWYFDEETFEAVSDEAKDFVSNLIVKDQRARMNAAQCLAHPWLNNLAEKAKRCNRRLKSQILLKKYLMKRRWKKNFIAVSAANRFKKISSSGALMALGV

[25] = target: Serine/threonine-protein kinase Nek5 (Homo sapiens) (UniProt Q6P3R8); conditions: Compound concentration 1000.0 nM
Sequence of Serine/threonine-protein kinase Nek5 (Homo sapiens) (Q6P3R8 whole entry): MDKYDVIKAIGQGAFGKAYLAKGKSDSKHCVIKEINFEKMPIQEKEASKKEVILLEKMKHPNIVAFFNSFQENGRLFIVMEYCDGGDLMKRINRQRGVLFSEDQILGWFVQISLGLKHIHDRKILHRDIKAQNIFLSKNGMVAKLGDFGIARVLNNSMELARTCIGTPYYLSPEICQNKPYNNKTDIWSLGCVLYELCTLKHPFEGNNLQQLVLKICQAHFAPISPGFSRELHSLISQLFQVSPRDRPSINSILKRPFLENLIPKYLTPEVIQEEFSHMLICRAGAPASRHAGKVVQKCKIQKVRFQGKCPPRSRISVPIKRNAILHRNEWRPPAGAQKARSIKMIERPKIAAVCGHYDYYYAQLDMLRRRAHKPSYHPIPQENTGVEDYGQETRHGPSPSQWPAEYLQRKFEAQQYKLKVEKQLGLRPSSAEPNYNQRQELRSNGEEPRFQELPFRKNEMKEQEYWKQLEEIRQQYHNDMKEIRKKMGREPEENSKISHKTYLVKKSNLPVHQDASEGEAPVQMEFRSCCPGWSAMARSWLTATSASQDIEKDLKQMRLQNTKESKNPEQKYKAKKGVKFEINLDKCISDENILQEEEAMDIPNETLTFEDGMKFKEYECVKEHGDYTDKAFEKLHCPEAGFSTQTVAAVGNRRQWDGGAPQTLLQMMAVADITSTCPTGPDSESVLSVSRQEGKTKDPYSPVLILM

[26] = target: Cyclin-dependent kinase 17 (Homo sapiens) (UniProt Q00537); conditions: Compound concentration 1000.0 nM
[27] = system: Phosphatidylinositol 4,5-bisphosphate 3-kinase catalytic subunit alpha isoform (Homo sapiens), P42336 [E542K]; conditions: Compound concentration 1000.0 nM
[28] = target: Receptor-interacting serine/threonine-protein kinase 4 (Homo sapiens) (UniProt P57078); conditions: Compound concentration 1000.0 nM
[29] = target: Ribosomal protein S6 kinase alpha-1 (Homo sapiens) (UniProt Q15418); conditions: Compound concentration 1000.0 nM
[30] = target: Serine/threonine-protein kinase 16 (Homo sapiens) (UniProt O75716); conditions: Compound concentration 1000.0 nM
[31] = target: Activated CDC42 kinase 1 (Homo sapiens) (UniProt Q07912); conditions: Compound concentration 1000.0 nM
[32] = target: Serine/threonine-protein kinase TNNI3K (Homo sapiens) (UniProt Q59H18); conditions: Compound concentration 1000.0 nM
[33] = target: Transient receptor potential cation channel subfamily M member 6 (Homo sapiens) (UniProt Q9BX84); conditions: Compound concentration 1000.0 nM
[34] = target: Serine/threonine-protein kinase ULK3 (Homo sapiens) (UniProt Q6PHR2); conditions: Compound concentration 1000.0 nM
[35] = target: Serine/threonine-protein kinase VRK2 (Homo sapiens) (UniProt Q86Y07); conditions: Compound concentration 1000.0 nM
[36] = target: Serine/threonine-protein kinase WNK4 (Homo sapiens) (UniProt Q96J92); conditions: Compound concentration 1000.0 nM
Sequence of Serine/threonine-protein kinase WNK4 (Homo sapiens) (Q96J92 whole entry): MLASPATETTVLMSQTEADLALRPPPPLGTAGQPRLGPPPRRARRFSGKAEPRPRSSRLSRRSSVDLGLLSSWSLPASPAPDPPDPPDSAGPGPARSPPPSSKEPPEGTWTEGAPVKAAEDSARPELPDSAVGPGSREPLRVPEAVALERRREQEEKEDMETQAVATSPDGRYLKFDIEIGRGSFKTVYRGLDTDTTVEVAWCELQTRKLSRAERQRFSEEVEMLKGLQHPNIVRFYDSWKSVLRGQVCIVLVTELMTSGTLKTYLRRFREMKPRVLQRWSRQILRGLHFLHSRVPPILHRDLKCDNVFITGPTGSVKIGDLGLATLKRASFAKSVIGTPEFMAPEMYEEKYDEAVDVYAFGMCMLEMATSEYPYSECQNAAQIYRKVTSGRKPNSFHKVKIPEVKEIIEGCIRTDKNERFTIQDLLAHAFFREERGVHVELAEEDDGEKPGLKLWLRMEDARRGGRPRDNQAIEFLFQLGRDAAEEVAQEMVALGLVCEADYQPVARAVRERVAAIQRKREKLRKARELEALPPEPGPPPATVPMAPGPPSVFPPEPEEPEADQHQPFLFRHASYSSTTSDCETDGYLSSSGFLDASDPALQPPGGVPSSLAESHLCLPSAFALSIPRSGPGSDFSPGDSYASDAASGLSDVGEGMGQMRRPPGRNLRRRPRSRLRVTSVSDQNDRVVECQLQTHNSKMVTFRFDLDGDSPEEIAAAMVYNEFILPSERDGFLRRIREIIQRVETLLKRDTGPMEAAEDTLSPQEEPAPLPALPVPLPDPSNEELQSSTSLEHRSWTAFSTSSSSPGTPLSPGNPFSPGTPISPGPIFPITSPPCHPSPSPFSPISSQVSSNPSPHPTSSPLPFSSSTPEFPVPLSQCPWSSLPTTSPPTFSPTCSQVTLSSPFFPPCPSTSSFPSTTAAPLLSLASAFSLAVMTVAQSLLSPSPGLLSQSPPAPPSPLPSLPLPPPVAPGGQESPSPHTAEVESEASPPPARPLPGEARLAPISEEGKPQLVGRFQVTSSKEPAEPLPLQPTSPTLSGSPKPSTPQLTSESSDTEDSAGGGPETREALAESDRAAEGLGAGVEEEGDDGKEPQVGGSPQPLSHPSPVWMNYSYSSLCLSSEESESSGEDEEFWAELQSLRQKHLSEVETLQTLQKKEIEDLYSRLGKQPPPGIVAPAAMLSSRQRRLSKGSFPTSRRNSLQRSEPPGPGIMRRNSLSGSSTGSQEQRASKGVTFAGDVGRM

[37] = target: Serine/threonine-protein kinase 25 (Homo sapiens) (UniProt O00506); conditions: Compound concentration 1000.0 nM

Sequence of RAC-alpha serine/threonine-protein kinase (Homo sapiens) (P31749 whole entry): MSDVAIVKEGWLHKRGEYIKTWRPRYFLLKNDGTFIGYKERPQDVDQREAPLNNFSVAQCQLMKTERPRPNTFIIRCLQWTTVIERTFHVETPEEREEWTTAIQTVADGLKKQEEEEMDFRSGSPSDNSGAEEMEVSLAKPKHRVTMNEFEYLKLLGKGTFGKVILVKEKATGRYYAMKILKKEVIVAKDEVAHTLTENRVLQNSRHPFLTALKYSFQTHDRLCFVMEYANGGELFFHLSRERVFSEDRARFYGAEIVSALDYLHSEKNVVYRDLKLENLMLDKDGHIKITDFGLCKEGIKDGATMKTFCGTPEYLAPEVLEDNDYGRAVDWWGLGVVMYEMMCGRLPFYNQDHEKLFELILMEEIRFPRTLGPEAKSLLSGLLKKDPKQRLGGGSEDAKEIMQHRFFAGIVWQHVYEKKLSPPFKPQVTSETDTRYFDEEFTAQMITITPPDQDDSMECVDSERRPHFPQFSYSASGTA

CC(C)(C)OC(=O)N1CCCC1CNC1CCC(c2cc(F)ccc2F)(S(=O)(=O)c2ccc(Cl)cc2)CC1 (configuration not stated) [GSI-NC]
pKi [1]: 6.29

O=S(=O)(NC1CCC(c2cc(F)ccc2F)(S(=O)(=O)c2ccc(Cl)cc2)CC1)C(F)(F)F (configuration not stated) [MRK-560]
residual activity [2]: 5%
residual activity [3]: 100%
residual activity [4]: 94%
residual activity [5]: 100%
residual activity [6]: 92%
residual activity [7]: 100%
residual activity [8]: 100%
residual activity [9]: 85%
residual activity [10]: 100%
residual activity [11]: 93%
residual activity [12]: 84%
residual activity [13]: 100%
residual activity [14]: 91%
residual activity [15]: 86%
residual activity [16]: 100%
residual activity [17]: 74%
residual activity [18]: 0%
residual activity [19]: 87%
residual activity [20]: 99%
residual activity [21]: 97%
residual activity [22]: 100%
residual activity [23]: 100%
residual activity [24]: 91%
residual activity [25]: 100%
residual activity [26]: 100%
residual activity [27]: 100%
residual activity [28]: 91%
residual activity [29]: 90%
residual activity [30]: 97%
residual activity [31]: 96%
residual activity [32]: 100%
residual activity [33]: 95%
residual activity [34]: 82%
residual activity [35]: 100%
residual activity [36]: 100%
residual activity [37]: 100%
